From publication PMC11823630, “In vitro potentiation of tetracyclines in Pseudomonas aeruginosa by RW01, a new cyclic peptide” (Antimicrobial Agents and Chemotherapy, 2024)
Converted amounts (≈) assume the structure as drawn.

Tests used:
P. aeruginosa 125A = assay: MIC, CLSI broth microdilution in BD Phoenix AST Broth; assay type: cell-based, Pseudomonas aeruginosa; conditions: strain 125A; for MIC: Pseudomonas aeruginosa, agent alone, 37°C, 18–22 h, three biological replicates
Procedure: (§1) MIC for RW01 was also tested.
(§2) FIC of RW01 (FICRW01)=MIC of RW01 in combination/MIC of RW01 alone,FIC of antibiotic (FICATB)=MIC of ATB in combination/MIC of ATB alone,FICI=FICRW01 +FICATB.
(§3) FICI was interpreted as follows: synergistic effect if FICI is ≤0.5; additive effect if 0.5 < FICI ≤ 1.0; indifferent effect if 1.0 < FICI ≤ 2.0; and finally, antagonistic effect if FICI is >2.0. The average FICI considering the antibiotic MIC (no growth in any of the replicates) at different concentrations of RW01 was calculated ([28]).

P. aeruginosa PAOUW = assay: as above; assay type: cell-based, Pseudomonas aeruginosa; conditions: Pseudomonas aeruginosa, strain PAOUW; agent alone; 37°C, 18–22 h; three biological replicates; read-out: MIC
Procedure: as §1, §2, §3

P. aeruginosa PAO1 = assay: as above; assay type: cell-based, Pseudomonas aeruginosa; conditions: Pseudomonas aeruginosa, PAO1, strain PAO1; agent alone; 37°C, 18–22 h; three biological replicates; read-out: MIC
Procedure: as §1, §2, §3

P. aeruginosa PAOUW∆oprF = assay: as above; assay type: cell-based, Pseudomonas aeruginosa; conditions: Pseudomonas aeruginosa, strain PAOUWΔoprF; agent alone; 37°C, 18–22 h; three biological replicates
Procedure: as §1, §2, §3

P. aeruginosa PAOΔoprM = assay: as above; assay type: cell-based, Pseudomonas aeruginosa; conditions: Pseudomonas aeruginosa
Procedure: as §1, §2, §3

P. aeruginosa 41A = assay: as above; assay type: cell-based, Pseudomonas aeruginosa; conditions: Pseudomonas aeruginosa; strain 41A; agent alone; 37°C, 18–22 h; three biological replicates
Procedure: as §1, §2, §3

P. aeruginosa 41B = assay: as above; assay type: cell-based, Pseudomonas aeruginosa; conditions: Pseudomonas aeruginosa; strain 41B; agent alone; 37°C, 18–22 h; three biological replicates
Procedure: as §1, §2, §3

P. aeruginosa PAOΔmexR = assay: as above; assay type: cell-based, Pseudomonas aeruginosa; conditions: Pseudomonas aeruginosa
Procedure: as §1, §2, §3

P. aeruginosa 125B = assay: as above; assay type: cell-based, Pseudomonas aeruginosa; conditions: strain 125B; for MIC: Pseudomonas aeruginosa, agent alone, 37°C, 18–22 h, three biological replicates
Procedure: as §1, §2, §3

P. aeruginosa PAOΔmexZ = assay: as above; assay type: cell-based, Pseudomonas aeruginosa; conditions: Pseudomonas aeruginosa, strain PAOΔmexZ; agent alone; 37°C, 18–22 h; three biological replicates
Procedure: as §1, §2, §3

[1] = system: PAO1 mutant MIN8_3, pilZ(nt18InsT); assay: MIC, Sensititre custom plate; assay type: cell-based; conditions: Pseudomonas aeruginosa, PAO1, read-out: MIC, Sensititre
Procedure: (§4) Selection of resistant mutants was performed for minocycline with and without RW01 in three independent replicates for wild-type P. aeruginosa reference strain PAO1. Tubes containing Mueller-Hinton broth (MHB) were inoculated and incubated for 24 h at 37°C. Afterward, 1/100 dilution of each tube was incubated at 37°C in MHB to late-exponential growth phase, measured by spectrophotometry at OD600. […] A control plate without antibiotic was included as inoculum control. After overnight incubation, colony counting of each treatment was performed to analyze the generation of resistant population. The mutant prevention concentration (MPC) was defined as the lowest concentration of antibiotic yielding no growth of resistant mutants. Selected mutants were checked for susceptibility profiles by using a Sensititre custom plate (Thermo Fisher Scientific, Massachusetts, USA) for Gram-negative bacteria, following the manufacturer’s instructions.

[2] = system: PAO1 mutant MIN8_2, pilZ(nt18InsT); assay: MIC, Sensititre custom plate; assay type: cell-based; conditions: Pseudomonas aeruginosa, PAO1, read-out: MIC, Sensititre
Procedure: as §4

[3] = system: PAO1 mutant MIN4_RW01_4, pmrB(Y98N); assay: MIC, Sensititre custom plate; assay type: cell-based; conditions: Pseudomonas aeruginosa, PAO1, read-out: MIC, Sensititre
Procedure: as §4

[4] = system: PAO1 mutant MIN2_RW01_4, pmrB(M292T); assay: MIC, Sensititre custom plate; assay type: cell-based; conditions: Pseudomonas aeruginosa, PAO1, read-out: MIC, Sensititre
Procedure: as §4

[5] = system: PAO1 mutant MIN4_RW01_1, pmrB(R429H); assay: MIC, Sensititre custom plate; assay type: cell-based; conditions: Pseudomonas aeruginosa, PAO1, read-out: MIC, Sensititre
Procedure: as §4

[6] = system: PAO1 mutant MIN8_1, nalD(R3C), pilM(Q62X); assay: MIC, Sensititre custom plate; assay type: cell-based; conditions: Pseudomonas aeruginosa, PAO1, read-out: MIC, Sensititre
Procedure: as §4

[7] = system: PAO1 mutant MIN4_RW01_3, pmrB(M292T); assay: MIC, Sensititre custom plate; assay type: cell-based; conditions: Pseudomonas aeruginosa, PAO1, read-out: MIC, Sensititre
Procedure: as §4

[8] = system: PAO1 mutant MIN16_3, nfxB(nt79∆14), pilB(N349K); assay: MIC, Sensititre custom plate; assay type: cell-based; conditions: Pseudomonas aeruginosa, PAO1, read-out: MIC, Sensititre
Procedure: as §4

P. aeruginosa PAO1, WT = assay: MIC, Sensititre custom plate; assay type: cell-based; conditions: Pseudomonas aeruginosa, PAO1, read-out: MIC, Sensititre
Procedure: as §4

[9] = system: PAO1 mutant MIN2_RW01_3, parS(V152A); assay: MIC, Sensititre custom plate; assay type: cell-based; conditions: Pseudomonas aeruginosa, PAO1, read-out: MIC, Sensititre
Procedure: as §4

[10] = system: PAO1 mutant MIN32_1, mexR(R63H), pilB(N349K), PA0646(V316G); assay: MIC, Sensititre custom plate; assay type: cell-based; conditions: Pseudomonas aeruginosa, PAO1, read-out: MIC, Sensititre
Procedure: as §4

[11] = system: PAO1 mutant MIN2_RW01_2, pmrB(M292T); assay: MIC, Sensititre custom plate; assay type: cell-based; conditions: Pseudomonas aeruginosa, PAO1, read-out: MIC, Sensititre
Procedure: as §4

[12] = system: PAO1 mutant MIN2_RW01_1, pmrB(V215L); assay: MIC, Sensititre custom plate; assay type: cell-based; conditions: Pseudomonas aeruginosa, PAO1, read-out: MIC, Sensititre
Procedure: as §4

[13] = system: PAO1 mutant MIN16_1, nalD(T43P); assay: MIC, Sensititre custom plate; assay type: cell-based; conditions: Pseudomonas aeruginosa, PAO1, read-out: MIC, Sensititre
Procedure: as §4

[14] = system: PAO1 mutant MIN16_4, nalC(T50P), pilM(Q62X); assay: MIC, Sensititre custom plate; assay type: cell-based; conditions: Pseudomonas aeruginosa, PAO1, read-out: MIC, Sensititre
Procedure: as §4

[15] = system: PAO1 mutant MIN8_4, pilZ(nt18InsT); assay: MIC, Sensititre custom plate; assay type: cell-based; conditions: Pseudomonas aeruginosa, PAO1, read-out: MIC, Sensititre
Procedure: as §4

[16] = system: PAO1 mutant MIN1_RW01_1, pmrB(Y98N); assay: MIC, Sensititre custom plate; assay type: cell-based; conditions: Pseudomonas aeruginosa, PAO1, read-out: MIC, Sensititre
Procedure: as §4

[17] = system: PAO1 mutant MIN16_2, nalC(aa9∆4), pilQ(nt46∆1); assay: MIC, Sensititre custom plate; assay type: cell-based; conditions: Pseudomonas aeruginosa, PAO1, read-out: MIC, Sensititre
Procedure: as §4

[18] = system: PAO1 mutant MIN1_RW01_2, mexR(G58E), pilB(G326D), hutC(Y181X); assay: MIC, Sensititre custom plate; assay type: cell-based; conditions: Pseudomonas aeruginosa, PAO1, read-out: MIC, Sensititre
Procedure: as §4

[19] = system: PAO1 mutant MIN1_RW01_3, pmrB(V215L); assay: MIC, Sensititre custom plate; assay type: cell-based; conditions: Pseudomonas aeruginosa, PAO1, read-out: MIC, Sensititre
Procedure: as §4

[20] = system: PAO1 mutant MIN4_RW01_2, pmrB(F124S); assay: microbe, parasite or virus in culture; assay type: cell-based; conditions: Pseudomonas aeruginosa, PAO1, read-out: MIC, Sensititre
Procedure: as §4

[21] = system: PAO1 mutant MIN1_RW01_4, pmrB(F124L); assay: microbe, parasite or virus in culture; assay type: cell-based; conditions: Pseudomonas aeruginosa, PAO1, read-out: MIC, Sensititre
Procedure: as §4

[22] = antibiotic MIC alone vs with RW01 100 mg/L

SMILES: O=C(N[C@H](CO)[C@H](O)c1ccc([N+](=O)[O-])cc1)C(Cl)Cl [Chloramphenicol, chloramphenicol]
- MIC (P. aeruginosa 125A): 128 µg/mL
- Potentiation (fold) (P. aeruginosa 125A; [22]): ≥ 8 fold
- MIC (P. aeruginosa PAOUW): > 512 µg/mL
- MIC (P. aeruginosa PAO1): 32 µg/mL
- MIC (P. aeruginosa PAOUW∆oprF): 32 µg/mL
- MIC (P. aeruginosa PAOΔoprM): 4 µg/mL
- MIC (P. aeruginosa 41A): 128 µg/mL
- MIC (P. aeruginosa 41B): 128 µg/mL
- MIC (P. aeruginosa PAOΔmexR): 32 µg/mL
- MIC (P. aeruginosa 125B): 64 µg/mL
- Potentiation (fold) (P. aeruginosa 125B; [22]): ≥ 8 fold
- MIC (P. aeruginosa PAOΔmexZ): 32 µg/mL

SMILES: C[C@H]1COc2c(N3CCN(C)CC3)c(F)cc3c(=O)c(C(=O)O)cn1c23 [Levofloxacin, levofloxacin]
- MIC (P. aeruginosa 125A): 0.5 µg/mL
- MIC (P. aeruginosa PAOUW): 4 µg/mL
- MIC (P. aeruginosa PAO1): 0.5 µg/mL
- MIC (P. aeruginosa PAOUW∆oprF): 0.5 µg/mL
- MIC (P. aeruginosa PAOΔoprM): 0.125 µg/mL
- MIC (P. aeruginosa 41A): 2 µg/mL
- MIC (P. aeruginosa 41B): 1 µg/mL
- MIC (P. aeruginosa PAOΔmexR): 0.5 µg/mL
- MIC (P. aeruginosa 125B): 0.5 µg/mL
- MIC (P. aeruginosa PAOΔmexZ): 0.5 µg/mL

SMILES: CCN[C@@H]1C[C@H](N)[C@@H](O[C@H]2OC(CN)=CC[C@H]2N)[C@H](O)[C@H]1O[C@H]1OC[C@](C)(O)[C@H](NC)[C@H]1O [Netilmicin, netilmicin]
- MIC (P. aeruginosa 125A): 8 µg/mL
- MIC (P. aeruginosa PAOUW): 2 µg/mL
- MIC (P. aeruginosa PAO1): 8 µg/mL
- MIC (P. aeruginosa PAOUW∆oprF): 8 µg/mL
- MIC (P. aeruginosa PAOΔoprM): 1 µg/mL
- MIC (P. aeruginosa 41A): 8 µg/mL
- MIC (P. aeruginosa 41B): 8 µg/mL
- MIC (P. aeruginosa PAOΔmexR): 8 µg/mL
- MIC (P. aeruginosa 125B): 8 µg/mL
- MIC (P. aeruginosa PAOΔmexZ): 8 µg/mL

SMILES: CCn1cc(C(=O)O)c(=O)c2cc(F)c(N3CCNCC3)cc21 [Norfloxacin, norfloxacin]
- MIC (P. aeruginosa 125A): 1 µg/mL
- MIC (P. aeruginosa PAOUW): 4 µg/mL
- MIC (P. aeruginosa PAO1): 0.5 µg/mL
- MIC (P. aeruginosa PAOUW∆oprF): 1 µg/mL
- MIC (P. aeruginosa PAOΔoprM): 0.25 µg/mL
- MIC (P. aeruginosa 41A): 2 µg/mL
- MIC (P. aeruginosa 41B): 4 µg/mL
- MIC (P. aeruginosa PAOΔmexR): 1 µg/mL
- MIC (P. aeruginosa 125B): 1 µg/mL
- MIC (P. aeruginosa PAOΔmexZ): 1 µg/mL

SMILES: CC1(C)S[C@@H]2[C@H](NC(=O)[C@H](C(=O)O)c3ccsc3)C(=O)N2[C@H]1C(=O)O [TIC, ticarcillin]
- MIC [1]: 64 µg/mL (≈ 166 µM)
- MIC [2]: 64 µg/mL (≈ 166 µM)
- MIC [3]: 16 µg/mL (≈ 41.6 µM)
- MIC [4]: 32 µg/mL (≈ 83.2 µM)
- MIC [5]: 128 µg/mL (≈ 333 µM)
- MIC [6]: 64 µg/mL (≈ 166 µM)
- MIC [7]: 16 µg/mL (≈ 41.6 µM)
- MIC [8]: 16 µg/mL (≈ 41.6 µM)
- MIC (P. aeruginosa PAO1, WT): 16 µg/mL (≈ 41.6 µM)
- MIC [9]: 16 µg/mL (≈ 41.6 µM)
- MIC [10]: 128 µg/mL (≈ 333 µM)
- MIC [11]: 32 µg/mL (≈ 83.2 µM)
- MIC [12]: 64 µg/mL (≈ 166 µM)
- MIC [13]: 64 µg/mL (≈ 166 µM)
- MIC [14]: 64 µg/mL (≈ 166 µM)
- MIC [15]: 64 µg/mL (≈ 166 µM)
- MIC [16]: 16 µg/mL (≈ 41.6 µM)
- MIC [17]: 64 µg/mL (≈ 166 µM)
- MIC [18]: 128 µg/mL (≈ 333 µM)
- MIC [19]: 16 µg/mL (≈ 41.6 µM)
- MIC [20]: 16 µg/mL (≈ 41.6 µM)
- MIC [21]: 16 µg/mL (≈ 41.6 µM)
